Data taken from US20260373078A1 (NANJING QINLING PHARMACEUTICAL TECHNOLOGY COMPANY LIMITED, priority 2023, published 2026).

Assays:
[1] = system: human glioma cancer cells; conditions: Tsai et al., Int J Mol Sci. 2012; cited from earlier work
[2] = Water solubility of wogonin / uniform solution with arginine; format: physicochemical; conditions: arginine 2%-10% (w/v)
Excerpt: In addition, in order to ensure that a pH of the solution remains stable within a range of 7.0-11.0, an appropriate amount of citric acid may need to be added to the formulation, with a content of 0.01%-0.05% (w/v).

COc1c(O)cc(O)c2c(=O)cc(-c3ccccc3)oc12 [Wogonin, wogonin]
reactive oxygen species production and cell apoptosis [1]: induces reactive oxygen species production and cell apoptosis
content of wogonin at which a uniform solution may be obtained [2]: 0.1-5.0 % (w/v)
